The source of these data is patent US8487111B2, “Substituted oxazolidinones and their use” (Bayer Intellectual Property GmbH, priority 2007, dated 2013).

Test [1] has as its target factor Xa (Homo sapiens (Human), UniProt P00742). As to the kind of experiment: Determination of the factor Xa-inhibitory activity in plasma samples (RVV-activated factor X, chromogenic substrate). The test is classed as biochemical. The settings on record: factor Xa inhibition in citrate plasma (Octapharma), RVV-stimulated, ChromozymX substrate. The method, then: a.4) Determination of the Factor Xa-Inhibitory Activity of the Potential Inhibitors in Plasma Samples
To determine the inhibition of factor Xa in plasma samples, the factor X present in plasma is activated by a protease from rattlesnake toxin. The factor Xa activity or its inhibition by potential inhibitors is then measured by addition of a chromogenic substrate.
Various concentrations of the substances to be tested are dissolved in dimethyl sulphoxide and mixed with an aqueous refludan solution (10 μg/ml). In clear 96-well plates having a flat bottom, 30 μl of citrate plasma (Octapharma) are mixed with 10 μl of the substance dilution. Then, either 20 μl of a solution of a rattlesnake toxin (Russel viper venom (RVV); RVV reagent: Pentapharm 121-06, final concentration 0.6 mU) in an aqueous calcium chloride solution buffer (final concentration of calcium chloride 0.05 M) or 20 μl of the aqueous calcium chloride solution (final concentration of calcium chloride 0.05 M) without RVV reagent (as reference for an unstimulated sample) are added. After addition of 20 μl of ChromozymX substrate (final concentration 1.6 mmol/l, Bachem L-1565, diluted in water) the samples are measured in a SpectraFluor Reader using a measurement filter of 405 nm each minute over a period of 20 minutes. The IC50 value is determined when about 70% of the maximum signal is reached (about 12 min).

The target of test [2] is thrombin (Homo sapiens (Human), UniProt P00734). Kind of test: Determination of the thrombin-inhibitory activity in plasma samples (ecarin, fluorogenic thrombin substrate). The settings on record: thrombin inhibition in citrate plasma (Octapharma), ecarin-stimulated. The test is classed as biochemical. On the procedure:
a.5) Determination of the Thrombin-Inhibitory Activity of the Potential Inhibitors in Plasma Samples
Various concentrations of the substances to be tested are dissolved in dimethyl sulphoxide and diluted with water. In white 96-well plates having a flat bottom, 20 μl of substance dilution are mixed with 20 μl of ecarin solution (ecarin reagent, from Sigma E-0504, final concentration 20 mU per batch) in Ca buffer (200 mM Hepes+560 mM sodium chloride+10 mM calcium chloride+0.4% PEG) or with 20 μl of Ca buffer (as unstimulated control). Furthermore, 20 μl of fluorogenic thrombin substrate (from Bachem I-1120, final concentration 50 μmol/l) and 20 μl of citrate plasma (from Octapharma) are added and homogenized thoroughly. The plate is measured in a SpectraFluorplus Reader using an excitation filter of 360 nm and an emission filter of 465 nm each minute over a period of 20 minutes. The IC50 value is determined when about 70% of the maximum signal is reached (about 12 min).

pIC50: −log10 of the molar value.

factor Xa, sequence (P00742 whole entry, looked up): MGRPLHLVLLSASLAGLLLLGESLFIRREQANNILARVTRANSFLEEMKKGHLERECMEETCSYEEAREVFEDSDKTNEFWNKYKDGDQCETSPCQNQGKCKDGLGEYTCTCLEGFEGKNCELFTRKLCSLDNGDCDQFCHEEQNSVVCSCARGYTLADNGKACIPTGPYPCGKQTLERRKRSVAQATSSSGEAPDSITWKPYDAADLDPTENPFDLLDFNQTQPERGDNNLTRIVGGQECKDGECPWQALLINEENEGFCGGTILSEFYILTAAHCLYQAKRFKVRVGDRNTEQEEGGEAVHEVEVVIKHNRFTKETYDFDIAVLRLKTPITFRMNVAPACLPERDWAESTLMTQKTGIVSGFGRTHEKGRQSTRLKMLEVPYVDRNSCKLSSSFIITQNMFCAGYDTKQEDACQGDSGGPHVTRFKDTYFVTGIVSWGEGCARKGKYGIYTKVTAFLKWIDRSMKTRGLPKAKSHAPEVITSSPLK
factor Xa, sequence (P00742 whole entry, looked up): as above

What is called pIC50 is the IC50 on a negative log10 scale, so that one unit is a factor of ten. Low readings indicate a high IC50, high ones a low IC50. Take `Cc1cc(N2C[C@H](CNC(=O)c3ccc(Cl)s3)OC2=O)ccc1-n1cccc(CO)c1=O` [Example 2, 5-Chloro-N-[((5S)-3-{4-[3-(hydroxymethyl)-2-oxopyridin-1(2H)-yl]-3-methylphenyl}-2-oxo-1,3-oxazolidin-5-yl)methyl]thiophene-2-carboxamide]: the pIC50 is 7.68 in test [1] and 6.70 in test [2].

For the compound `Cc1cc(N2C[C@H](CNC(=O)c3ccc(Cl)s3)OC2=O)ccc1-n1cccc(CCO)c1=O` [Example 6, 5-Chloro-N-[((5S)-3-{4-[3-(2-hydroxyethyl)-2-oxopyridin-1(2H)-yl]-3-methylphenyl}-2-oxo-1,3-oxazolidin-5-yl)methyl]thiophene-2-carboxamide], the results for the pIC50 in test [1] and in test [2] were 7.15 and 6.73, respectively.

Regarding `COCc1cc(N2C[C@H](CNC(=O)c3ccc(Cl)s3)OC2=O)ccc1-n1cccc(CCO)c1=O` [Example 8], the figures for the pIC50 in test [1] and in test [2] were 6.78 and 7.80, respectively.

Turning to `Cc1cc(N2C[C@H](CNC(=O)c3ccc(Cl)s3)OC2=O)ccc1-n1cccc(CCCO)c1=O` [Example 10, 5-Chloro-N-{[(5S)-3-{4-[3-(3-hydroxypropyl)-2-oxopyridin-1(2H)-yl]-3-methylphenyl}-2-oxo-1,3-oxazolidin-5-yl]methyl}thiophene-2-carboxamide], the negative logarithm of the IC50 (pIC50) is 7.40 in test [1] and 7.13 in test [2].
